Measured values from US7368423B1, “Composition and method for treating chronic allograft rejection” (priority 2001, dated 2008).

Experiments:
[1] = system: ACI to LEW rat cardiac transplant; assay type: in vivo; conditions: given with CSA
Source text: An ACI-LEW rat cardiac transplant model was used to test the ability of 2-CDA to suppress allograft chronic rejection.
Animals were sacrificed at 90 days post transplant. Heart grafts were subjected to evaluation which included the quantification of the extent to which the following pathologies typically associated with chronic allograft rejection were present in the allograft models: myocardial Infiltration (MI), myocardial fibrosis (MF), and intimal proliferation (IP).
Each of these pathologies is associated with the vascular disease of transplant arteriosclerosis.

[2] = system: allogeneic small bowel transplantation; conditions: rats sacrificed ten days after small bowel transplantation; cited from earlier work
heart allografts = conditions: cited from earlier work

Nc1nc(Cl)nc2c1ncn2[C@H]1C[C@H](O)[C@@H](CO)O1 [2-CDA, 2-chlorodeoxyadenosine]
most effective dose of 2-CDA [1]: 1 mg per kilogram of recipient body mass per week
graft rejection (histology) [2]: moderate to severe rejection
effect on allograft rejection (heart allografts; 2-CDA alone): no effect
rejection of heart allografts (histology) (heart allografts; rats, 10 days post transplant): severe rejection
